# From patent US9248162B2, “Factor H for treatment of rheumatoid arthritis” (Baxter International Inc., priority 2013, dated 2016)
# Where “and” joins values, the source holds several entries; their conditions need not be identical. Equal values may be shown once. Entries after “also recorded” stand apart in the source; their conditions may differ. Marks after values point to notes of the source that are not given here.
# Assays:
# Format in all cases: in vivo, Balb C mice
# [1] = test system: collagen antibody-induced arthritis; experiment: Mouse CAIA: hind paw / footpad volume (swelling, disease burden); parameters: Mean Disease Burden / Total Disease Burden (AUC) / Hind Limb Volume, Mean Diff. / Total Disease, Mean Diff.: unit not given here; details: for % Disease Suppression / Total Disease Burden (AUC): days 8-22
# Experimental: (§1) Balb C mice (n=10 per cohort) were used to determine the efficacy of Factor H (FH) during […]. The mice were treated with ArthritoMAb (anti-collagen) antibody cocktail (2 mg, i.v.) on day 1, followed 7 days later with an injection of LPS (50 μg, i.p.). On day 8, hind paw volumes were measured for each animal and distributed to various treatment groups.
# (§2) Factor H was formulated in 20 mM Citrate, 150 mM NaCl, pH=6. […] Ethanercept was formulated as Enbrel™ in saline. Vehicle was formulated in 20 mM Citrate, 150 mM NaCl, pH=6. […] The dosing volume for Factor H and BX12 was 25 mL/kg (0.500 mL/20 g mouse) and adjusted accordingly for body weight.
# (§3) Dosing with the different agents was started on day 8 as described in Table 3.
# (§4) The age at start date was 7 to 9 weeks. Body weights were measured bi-weekly to the endpoint (Table 4). At the endpoint, tissue samples were processed for histology and submitted to a pathologist for independent analysis. Sampling 1 was performed at the endpoint. The hind limbs were preserved in 10% formalin. Sampling 2 was performed at the endpoint for group 4 animals. Blood was collected by terminal cardiac puncture. The blood was processed for anti-coagulant. The kidneys were additionally preserved in formalin and followed with 70% EtOH. Samples were scored for inflammation, pannus (granulation tissue), cartilage damage, bone resorption and exostosis (Table 5).
# [2] = test system: collagen antibody-induced arthritis; experiment: Mouse CAIA: clinical score; parameters: key to Clinical Score, Summary (significance): ns: = not significant; *: = P < 0.05; **: = P < 0.01; ***: = P < 0.001
# Experimental: The mice were treated with ArthritoMAb (anti-collagen) antibody cocktail (2 mg, i.v.) on day 1, followed 7 days later with an injection of LPS (50 μg, i.p.). On day 8, hind paw volumes were measured for each animal and distributed to various treatment groups.
# as §2, §3
# [3] = test system: collagen antibody-induced arthritis; experiment: Mouse CAIA: ankle histology scores (H & E); parameters: key to Score From H & E: Inflammation: 0: normal; 1: minimal infiltration of inflammatory cells in periarticular tissue; 2: mild infiltration; 3: moderate infiltration with moderate edema; 4: marked infiltration with marked edema; 5: severe infiltration with severe edema; key to Exostosis, Summary (significance) / Composite, Summary (significance) / Pannus, Summary (significance) / Cartilage, Summary (significance) / Inflammation, Summary (significance): ns: = not significant; *: = P < 0.05; **: = P < 0.01; ***: = P < 0.001; Composite Biohistopathology Score, group value / Composite Biohistopathology Score: scale not given here
# Experimental: as §1, §3
# as §4, with “Hind paw volumes were measured on day 8, 11, 12, 13, 15, 19 and 22 (endpoint). The age” for “The age”
# [4] = Vehicle vs agent, Dunnett's Multiple Comparison Test
# [5] = individual animal, listed as BX12
# [6] = Vehicle vs agent, Dunn's Multiple Comparison Test
# [7] = ankle, group mean ± spread, 10 animals, score 0-5
# [8] = histopathology score, graded 1-5, hind limbs at endpoint, group value
substance,measurement,setting,value
Factor H,"Hind Limb Volume, Mean Diff.",[1]; [4],0.1199
same,"Hind Limb Volume, Summary (significance)",[1]; [4],*** (= P < 0.001)
same,"Total Disease, Mean Diff.",[1]; [4],1.88
same,"Total Disease, Summary (significance)",[1]; [4],*** (= P < 0.001)
same,Hind paw volume,"[1]; day 8 of study, group mean, n 10",0.35 mL
same,Hind paw volume,"[1]; day 8 of study, individual animal, listed as BX12",0.41 mL and 0.4 mL and 0.38 mL and 0.37 mL and 0.35 mL and 0.34 mL and 0.32 mL (2×) and 0.3 mL (2×)
same,Hind paw volume,"[1]; day 11 of study, group mean, n 10",0.39 mL
same,Hind paw volume,"[1]; day 11 of study, individual animal, listed as BX12",0.44 mL and 0.36 mL and 0.38 mL and 0.4 mL and 0.34 mL and 0.39 mL and 0.46 mL and 0.43 mL and 0.35 mL
same,Hind paw volume,"[1]; day 12 of study, group mean, n 10",0.44 mL
same,Hind paw volume,"[1]; day 12 of study, individual animal, listed as BX12",0.5 mL and 0.56 mL and 0.52 mL and 0.4 mL and 0.35 mL and 0.55 mL and 0.37 mL and 0.34 mL and 0.3 mL and 0.45 mL
same,Hind paw volume,"[1]; day 13 of study, group mean, n 10",0.36 mL
same,Hind paw volume,"[1]; day 13 of study, individual animal, listed as BX12",0.32 mL (2×) and 0.54 mL and 0.36 mL and 0.29 mL (2×) and 0.43 mL and 0.37 mL and 0.39 mL and 0.33 mL
same,Hind paw volume,"[1]; day 16 of study, group mean, n 10",0.31 mL
same,Hind paw volume,"[1]; day 16 of study, individual animal, listed as BX12",0.29 mL (2×) and 0.35 mL (2×) and 0.32 mL and 0.28 mL (3×) and 0.42 mL and 0.27 mL
same,Hind paw volume,"[1]; day 19 of study, group mean, n 10",0.34 mL
same,Hind paw volume,"[1]; day 19 of study, individual animal, listed as BX12",0.3 mL (2×) and 0.4 mL and 0.42 mL and 0.31 mL and 0.25 mL and 0.45 mL and 0.29 mL (2×) and 0.36 mL
same,Hind paw volume,"[1]; day 22 of study, group mean, n 10",0.35 mL
same,Hind paw volume,"[1]; day 22 of study, individual animal, listed as BX12",0.38 mL and 0.39 mL and 0.32 mL (2×) and 0.33 mL and 0.42 mL and 0.35 mL and 0.34 mL (2×) and 0.29 mL
same,% Disease Suppression,"[1]; group mean, n 10",97.33%
same,Total Disease Burden (AUC),"[1]; group mean, n 10",0.05
same,% Disease Suppression,[1]; [5],140.2% and 93.5% and 107.8% and 121.6% and 130.8% and 38.3% and 96.1% and 96.9% and 65.5% and 52.1%
same,Total Disease Burden (AUC),[1]; [5],−0.78 and 0.13 and −0.15 and −0.42 and −0.60 and 1.19 and 0.08 (2×) and 0.55 and 0.35
same,Maximum Δ Mean Volume,"[1]; difference between mean combined foot pad volumes on day 8 and on median day of maximal swelling, vehicle 0.21",0.12*** ml
same,Mean Disease Burden,"[1]; group mean AUC of combined footpad volume over baseline, days 8 to 22, vehicle 1.93",0.05***
same,% Disease Suppression (vs Vehicle),[1]; percent decrease in total disease burden relative to vehicle,97.3%
same,foot pad / hind limb swelling,"[1]; result in words (Table 9, FIG. 9), listed as FH",lower mean change in foot pad swelling on the day of maximal swelling compared to vehicle; also recorded: performed well compared to Etanercept
same,"Clinical Score, Difference in rank sum",[2]; [6],8.3
same,"Clinical Score, Summary (significance)",[2]; [6],ns
same,"Max Clin Score, Mean","[2]; group mean, n=10",33.40
same,"Clinical Score, Day of Study 8, Mean","[2]; group mean, n=10, day 8 (start of dosing)",3.00
same,"Clinical Score, Day of Study 11, Mean","[2]; group mean, n=10, day 11",14.60
same,"Clinical Score, Day of Study 12, Mean","[2]; group mean, n=10, day 12",33.40
same,"Clinical Score, Day of Study 13, Mean","[2]; group mean, n=10, day 13",23.60
same,"Clinical Score, Day of Study 16, Mean","[2]; group mean, n=10, day 16 (Jul. 1, 2011)",16.90
same,"Clinical Score, Day of Study 19, Mean","[2]; group mean, n=10, day 19",18.20
same,"Clinical Score, Day of Study 22, Mean","[2]; group mean, n=10, day 22 (endpoint)",18.80
same,Day (of Max Clin Score),"[2]; individual animal, day of study",12
same,Max Clin Score,"[2]; individual animal, maximum over days 8 to 22, listed as BX12",37 and 42 (2×) and 20 and 21 and 49 and 30 and 32 and 16 and 45
same,"Clinical Score, Day of Study 8","[2]; individual animal, score 0-60, day 8 (start of dosing), listed as BX12",5 (3×) and 0 (6×) and 15
same,"Clinical Score, Day of Study 11","[2]; individual animal, score 0-60, day 11, listed as BX12",25 and 10 (2×) and 15 (2×) and 5 and 18 and 21 (2×) and 6
same,"Clinical Score, Day of Study 12","[2]; individual animal, score 0-60, day 12, listed as BX12",37 and 42 (2×) and 20 and 21 and 49 and 30 and 32 and 16 and 45
same,"Clinical Score, Day of Study 13","[2]; individual animal, score 0-60, day 13, listed as BX12",18 and 37 and 34 and 20 (2×) and 10 and 40 and 26 and 15 and 16
same,"Clinical Score, Day of Study 16","[2]; individual animal, score 0-60, day 16 (Jul. 1, 2011), listed as BX12",13 and 21 and 15 (2×) and 10 and 1 and 43 and 25 and 6 and 20
same,"Clinical Score, Day of Study 19","[2]; individual animal, score 0-60, day 19, listed as BX12",25 and 31 and 20 (2×) and 10 (3×) and 0 and 46 and 7
same,"Clinical Score, Day of Study 22","[2]; individual animal, score 0-60, day 22 (endpoint), listed as BX12",24 and 31 and 21 and 10 and 1 and 39 and 15 and 26 and 5 and 16
same,"Day (of Max Clin Score), Mean","[2]; listed as 'Mean', n=10, day of study",12.00
same,clinical response / clinical score,"[2]; result in words (Tables 6 and 7, FIG. 10), listed as FH",improved clinical response compared to vehicle control animals; also recorded: improves more over Etanercept at later time points (days 15 to 22); also recorded: lower clinical score compared to both vehicle and Etanercept
same,Mean Maximum Clinical Score,"[2]; scored from 0 to 60 (15/limb), sum of 4 limbs, vehicle 45.4",33.4^ns
same,"Cartilage, Difference in rank sum",[3]; [6],−0.75
same,"Cartilage, Summary (significance)",[3]; [6],ns
same,"Composite, Difference in rank sum",[3]; [6],3.25
same,"Composite, Summary (significance)",[3]; [6],ns
same,"Exostosis, Difference in rank sum",[3]; [6],11.5
same,"Exostosis, Summary (significance)",[3]; [6],* (= P < 0.05)
same,"Inflammation, Difference in rank sum",[3]; [6],6.45
same,"Inflammation, Summary (significance)",[3]; [6],ns
same,"Pannus, Difference in rank sum",[3]; [6],1.9
same,"Pannus, Summary (significance)",[3]; [6],ns
same,"Composite Biohistopathology Score, group value","[3]; ankle, group mean ± spread, 10 animals",3.1 ± 1.2
same,"Score From H & E: Bone Resorption, group value",[3]; [7],0.3 ± 0.2
same,"Score From H & E: Cartilage Damage, group value",[3]; [7],0.6 ± 0.2
same,"Score From H & E: Inflammation, group value",[3]; [7],1.0 ± 0.3
same,"Score From H & E: Pannus, group value",[3]; [7],0.9 ± 0.3
same,"Score From H & E: Periosteal/Exostotic Changes, group value",[3]; [7],0.3 ± 0.3
same,Composite Biohistopathology Score,"[3]; ankle, individual animal, endpoint day 22, listed as Group 4",1 (3×) and 4 and 5 and 2 and 0 (2×) and 13 and 3
same,Score From H & E: Inflammation,"[3]; ankle, individual animal, score 0-5, endpoint day 22, listed as Group 4",0 (4×) and 1 (3×) and 2 (2×) and 3
same,Composite Score,"[3]; histopathology composite, hind limbs at endpoint, group value",3.1 ± 1.2^ns
same,Bone Resorption,[3]; [8],0.3 ± 0.2^ns
same,Cartilage Damage,[3]; [8],0.6 ± 0.2^ns
same,Exostosis,[3]; [8],0.3 ± 0.3
same,Inflammation,[3]; [8],1.0 ± 0.3^ns
same,Pannus,[3]; [8],0.9 ± 0.3^ns
same,histopathology,"[3]; result in words (Table 8, FIG. 11), listed as FH",inhibits exostosis; also recorded: trend toward improved inflammation and bone resorption
